ChEMBL document CHEMBL3525924, “Cytochrome P450 3A-mediated microsomal biotransformation of 1α,25-dihydroxyvitamin D3 in mouse and human liver: drug-related induction and inhibition of catabolism” (Drug Metab Dispos, 2012)
pIC50: −log10 of the molar value.

System: not listed separately
Assay: Drug metabolism in dexamethasone treated CD1 mouse liver microsomes assessed as metabolite formation at 20 uM after 30 mins by LC/MS analysis in presence of NADPH and CYP1A2 inhibitor furafyline
Format: ADME
Conditions: 0.5 h

Drug metabolism | SMILES
metabolite_detected | C=C1/C(=C\C=C2/CCC[C@]3(C)[C@@H]([C@H](C)C[C@H](O)CC(C)(C)O)CC[C@@H]23)C[C@@H](O)C[C@@H]1O

System: not listed separately
Assay: Drug metabolism in CD1 mouse liver microsomes assessed as metabolite formation at 20 uM after 30 mins by LC/MS analysis in presence of NADPH and CYP2C inhibitor sulfaphenazole
Format: ADME
Conditions: 0.5 h

Drug metabolism | SMILES
metabolite_detected | C=C1/C(=C\C=C2/CCC[C@]3(C)[C@@H]([C@H](C)C[C@H](O)CC(C)(C)O)CC[C@@H]23)C[C@@H](O)C[C@@H]1O

System: not listed separately
Assay: Drug metabolism in prednisone treated CD1 mouse liver microsomes assessed as metabolite formation at 20 uM after 30 mins by LC/MS analysis in presence of NADPH and CYP2C inhibitor sulfaphenazole
Format: ADME
Conditions: 0.5 h

Drug metabolism | SMILES
metabolite_detected | C=C1/C(=C\C=C2/CCC[C@]3(C)[C@@H]([C@H](C)C[C@H](O)CC(C)(C)O)CC[C@@H]23)C[C@@H](O)C[C@@H]1O

System: Liver microsome
Assay: Drug metabolism in human liver microsomes assessed as IC50 for tamoxifen-mediated inhibition of metabolite formation at 20 uM after 30 mins by LC/MS analysis
Format: ADME
Conditions: 0.5 h

pIC50 | SMILES
< 4.40 | C=C1/C(=C\C=C2/CCC[C@]3(C)[C@@H]([C@H](C)C[C@H](O)CC(C)(C)O)CC[C@@H]23)C[C@@H](O)C[C@@H]1O

System: not listed separately
Assay: Drug metabolism in prednisone treated CD1 mouse liver microsomes assessed as metabolite formation at 20 uM after 30 mins by LC/MS analysis in presence of NADPH and CYP2E inhibitor di-ethyldithiocarbamate
Format: ADME
Conditions: 0.5 h

Drug metabolism | SMILES
metabolite_detected | C=C1/C(=C\C=C2/CCC[C@]3(C)[C@@H]([C@H](C)C[C@H](O)CC(C)(C)O)CC[C@@H]23)C[C@@H](O)C[C@@H]1O

System: not listed separately
Assay: Drug metabolism in CD1 mouse liver microsomes assessed as metabolite formation at 20 uM after 30 mins by LC/MS analysis in presence of NADPH and CYP2E inhibitor di-ethyldithiocarbamate
Format: ADME
Conditions: 0.5 h

Drug metabolism | SMILES
metabolite_detected | C=C1/C(=C\C=C2/CCC[C@]3(C)[C@@H]([C@H](C)C[C@H](O)CC(C)(C)O)CC[C@@H]23)C[C@@H](O)C[C@@H]1O

System: not listed separately
Assay: Drug metabolism in prednisone treated CD1 mouse liver microsomes treated with 20 uM of 1alpha,25(OH)2D3 assessed as metabolite formation after 30 mins by LC/MS analysis in presence of NADPH
Format: ADME
Conditions: 0.5 h

Drug metabolism | SMILES
metabolite_detected | C=C1/C(=C\C=C2/CCC[C@]3(C)[C@@H]([C@H](C)C[C@H](O)CC(C)(C)O)CC[C@@H]23)C[C@@H](O)C[C@@H]1O

System: Liver microsome
Assay: Drug level in human liver microsomes assessed as retention time treated with 20 uM of 1alpha,25(OH)2D3 after 30 mins by LC/MS analysis in presence of NADPH
Format: ADME
Conditions: 0.5 h

Retention_time [min] | SMILES
8.5 | C=C1/C(=C\C=C2/CCC[C@]3(C)[C@@H]([C@H](C)C[C@H](O)CC(C)(C)O)CC[C@@H]23)C[C@@H](O)C[C@@H]1O

System: not listed separately
Assay: Drug metabolism in dexamethasone treated CD1 mouse liver microsomes assessed as metabolite formation at 20 uM after 30 mins by LC/MS analysis in presence of NADPH and CYP2E inhibitor di-ethyldithiocarbamate
Format: ADME
Conditions: 0.5 h

Drug metabolism | SMILES
metabolite_detected | C=C1/C(=C\C=C2/CCC[C@]3(C)[C@@H]([C@H](C)C[C@H](O)CC(C)(C)O)CC[C@@H]23)C[C@@H](O)C[C@@H]1O

System: Liver microsome
Assay: Drug metabolism in human liver microsomes assessed as IC50 for clarithromycin-mediated inhibition of metabolite formation at 20 uM after 30 mins by LC/MS analysis
Format: ADME
Conditions: 0.5 h

pIC50 | SMILES
< 4.52 | C=C1/C(=C\C=C2/CCC[C@]3(C)[C@@H]([C@H](C)C[C@H](O)CC(C)(C)O)CC[C@@H]23)C[C@@H](O)C[C@@H]1O

System: Liver microsome
Assay: Drug metabolism in human liver microsomes assessed as IC50 for docetaxel-mediated inhibition of metabolite formation at 20 uM after 30 mins by LC/MS analysis
Format: ADME
Conditions: 0.5 h

pIC50 | SMILES
7.42 | C=C1/C(=C\C=C2/CCC[C@]3(C)[C@@H]([C@H](C)C[C@H](O)CC(C)(C)O)CC[C@@H]23)C[C@@H](O)C[C@@H]1O

System: not listed separately
Assay: Drug metabolism in prednisone treated CD1 mouse liver microsomes assessed as metabolite formation at 20 uM after 30 mins by LC/MS analysis in presence of NADPH and CYP2B inhibitor orphenadrine
Format: ADME
Conditions: 0.5 h

Drug metabolism | SMILES
metabolite_detected | C=C1/C(=C\C=C2/CCC[C@]3(C)[C@@H]([C@H](C)C[C@H](O)CC(C)(C)O)CC[C@@H]23)C[C@@H](O)C[C@@H]1O

System: not listed separately
Assay: Drug metabolism in dexamethasone treated CD1 mouse liver microsomes assessed as metabolite formation at 20 uM after 30 mins by LC/MS analysis in presence of NADPH and CYP2D inhibitor quinine
Format: ADME
Conditions: 0.5 h

Drug metabolism | SMILES
metabolite_detected | C=C1/C(=C\C=C2/CCC[C@]3(C)[C@@H]([C@H](C)C[C@H](O)CC(C)(C)O)CC[C@@H]23)C[C@@H](O)C[C@@H]1O

System: not listed separately
Assay: Drug metabolism in CD1 mouse liver microsomes assessed as metabolite formation at 20 uM after 30 mins by LC/MS analysis in presence of NADPH and CYP1A2 inhibitor furafyline
Format: ADME
Conditions: 0.5 h

Drug metabolism | SMILES
metabolite_detected | C=C1/C(=C\C=C2/CCC[C@]3(C)[C@@H]([C@H](C)C[C@H](O)CC(C)(C)O)CC[C@@H]23)C[C@@H](O)C[C@@H]1O

System: not listed separately
Assay: Drug metabolism in CD1 mouse liver microsomes assessed as metabolite formation at 20 uM after 30 mins by LC/MS analysis in presence of NADPH and CYP2B inhibitor orphenadrine
Format: ADME
Conditions: 0.5 h

Drug metabolism | SMILES
metabolite_detected | C=C1/C(=C\C=C2/CCC[C@]3(C)[C@@H]([C@H](C)C[C@H](O)CC(C)(C)O)CC[C@@H]23)C[C@@H](O)C[C@@H]1O

System: not listed separately
Assay: Drug metabolism in CD1 mouse liver microsomes assessed as metabolite formation at 20 uM after 30 mins by LC/MS analysis in presence of NADPH and CYP1A1 inhibitor alpha-naphthoflavone
Format: ADME
Conditions: 0.5 h

Drug metabolism | SMILES
metabolite_detected | C=C1/C(=C\C=C2/CCC[C@]3(C)[C@@H]([C@H](C)C[C@H](O)CC(C)(C)O)CC[C@@H]23)C[C@@H](O)C[C@@H]1O

System: not listed separately
Assay: Drug metabolism in CD1 mouse liver microsomes assessed as metabolite formation at 20 uM after 30 mins by LC/MS analysis in presence of NADPH and CYP2D inhibitor quinine
Format: ADME
Conditions: 0.5 h

Drug metabolism | SMILES
metabolite_detected | C=C1/C(=C\C=C2/CCC[C@]3(C)[C@@H]([C@H](C)C[C@H](O)CC(C)(C)O)CC[C@@H]23)C[C@@H](O)C[C@@H]1O

System: not listed separately
Assay: Drug metabolism in dexamethasone treated CD1 mouse liver microsomes assessed as metabolite formation at 20 uM after 30 mins by LC/MS analysis in presence of NADPH and CYP2C inhibitor sulfaphenazole
Format: ADME
Conditions: 0.5 h

Drug metabolism | SMILES
metabolite_detected | C=C1/C(=C\C=C2/CCC[C@]3(C)[C@@H]([C@H](C)C[C@H](O)CC(C)(C)O)CC[C@@H]23)C[C@@H](O)C[C@@H]1O

System: not listed separately
Assay: Drug level in dexamethasone treated CD1 mouse liver microsomes treated with 20 uM of 1alpha,25(OH)2D3 after 30 mins by LC/MS analysis in presence of NADPH relative to vehicle treated mouse
Format: ADME
Conditions: 0.5 h

fold change (FC) | SMILES
43 | C=C1/C(=C\C=C2/CCC[C@]3(C)[C@@H]([C@H](C)C[C@H](O)CC(C)(C)O)CC[C@@H]23)C[C@@H](O)C[C@@H]1O

System: Liver microsome
Assay: Drug metabolism in human liver microsomes assessed as IC50 for ritonavir-mediated inhibition of metabolite formation at 20 uM after 30 mins by LC/MS analysis
Format: ADME
Conditions: 0.5 h

pIC50 | SMILES
7.89 | C=C1/C(=C\C=C2/CCC[C@]3(C)[C@@H]([C@H](C)C[C@H](O)CC(C)(C)O)CC[C@@H]23)C[C@@H](O)C[C@@H]1O

System: not listed separately
Assay: Drug metabolism in prednisone treated CD1 mouse liver microsomes assessed as metabolite formation at 20 uM after 30 mins by LC/MS analysis in presence of NADPH and CYP2A inhibitor 8-methoxypsoralen
Format: ADME
Conditions: 0.5 h

Drug metabolism | SMILES
metabolite_detected | C=C1/C(=C\C=C2/CCC[C@]3(C)[C@@H]([C@H](C)C[C@H](O)CC(C)(C)O)CC[C@@H]23)C[C@@H](O)C[C@@H]1O

System: not listed separately
Assay: Drug metabolism in prednisone treated CD1 mouse liver microsomes assessed as metabolite formation at 20 uM after 30 mins by LC/MS analysis in presence of NADPH and CYP1A1 inhibitor alpha-naphthoflavone
Format: ADME
Conditions: 0.5 h

Drug metabolism | SMILES
metabolite_detected | C=C1/C(=C\C=C2/CCC[C@]3(C)[C@@H]([C@H](C)C[C@H](O)CC(C)(C)O)CC[C@@H]23)C[C@@H](O)C[C@@H]1O

System: Liver microsome
Assay: Drug metabolism in human liver microsomes assessed as IC50 for ketoconazole-mediated inhibition of metabolite formation at 20 uM after 30 mins by LC/MS analysis
Format: ADME
Conditions: 0.5 h

pIC50 | SMILES
7.40 | C=C1/C(=C\C=C2/CCC[C@]3(C)[C@@H]([C@H](C)C[C@H](O)CC(C)(C)O)CC[C@@H]23)C[C@@H](O)C[C@@H]1O

System: not listed separately
Assay: Drug metabolism in dexamethasone treated CD1 mouse liver microsomes assessed as metabolite formation at 20 uM after 30 mins by LC/MS analysis in presence of NADPH and CYP2B inhibitor orphenadrine
Format: ADME
Conditions: 0.5 h

Drug metabolism | SMILES
metabolite_detected | C=C1/C(=C\C=C2/CCC[C@]3(C)[C@@H]([C@H](C)C[C@H](O)CC(C)(C)O)CC[C@@H]23)C[C@@H](O)C[C@@H]1O

System: not listed separately
Assay: Drug metabolism in prednisone treated CD1 mouse liver microsomes assessed as metabolite formation at 20 uM after 30 mins by LC/MS analysis in presence of NADPH and CYP1A2 inhibitor furafyline
Format: ADME
Conditions: 0.5 h

Drug metabolism | SMILES
metabolite_detected | C=C1/C(=C\C=C2/CCC[C@]3(C)[C@@H]([C@H](C)C[C@H](O)CC(C)(C)O)CC[C@@H]23)C[C@@H](O)C[C@@H]1O

System: not listed separately
Assay: Drug metabolism in CD1 mouse liver microsomes assessed as metabolite formation at 20 uM after 30 mins by LC/MS analysis in presence of NADPH and CYP2A inhibitor 8-methoxypsoralen
Format: ADME
Conditions: 0.5 h

Drug metabolism | SMILES
metabolite_detected | C=C1/C(=C\C=C2/CCC[C@]3(C)[C@@H]([C@H](C)C[C@H](O)CC(C)(C)O)CC[C@@H]23)C[C@@H](O)C[C@@H]1O

System: not listed separately
Assay: Drug metabolism in dexamethasone treated CD1 mouse liver microsomes assessed as metabolite formation at 20 uM after 30 mins by LC/MS analysis in presence of NADPH and CYP1A1 inhibitor alpha-naphthoflavone
Format: ADME
Conditions: 0.5 h

Drug metabolism | SMILES
metabolite_detected | C=C1/C(=C\C=C2/CCC[C@]3(C)[C@@H]([C@H](C)C[C@H](O)CC(C)(C)O)CC[C@@H]23)C[C@@H](O)C[C@@H]1O

System: not listed separately
Assay: Drug metabolism in prednisone treated CD1 mouse liver microsomes assessed as metabolite formation at 20 uM after 30 mins by LC/MS analysis in presence of NADPH and CYP2D inhibitor quinine
Format: ADME
Conditions: 0.5 h

Drug metabolism | SMILES
metabolite_detected | C=C1/C(=C\C=C2/CCC[C@]3(C)[C@@H]([C@H](C)C[C@H](O)CC(C)(C)O)CC[C@@H]23)C[C@@H](O)C[C@@H]1O

System: not listed separately
Assay: Drug metabolism in dexamethasone treated CD1 mouse liver microsomes assessed as metabolite formation at 20 uM after 30 mins by LC/MS analysis in presence of NADPH and CYP2A inhibitor 8-methoxypsoralen
Format: ADME
Conditions: 0.5 h

Drug metabolism | SMILES
metabolite_detected | C=C1/C(=C\C=C2/CCC[C@]3(C)[C@@H]([C@H](C)C[C@H](O)CC(C)(C)O)CC[C@@H]23)C[C@@H](O)C[C@@H]1O
